Results published in US20240018133A1, “MODULATORS OF THE INTEGRATED STRESS PATHWAY” (Calico Life Sciences LLC, priority 2019, published 2024).

Tested on: ATF4 luciferase reporter (human full-length ATF4 5'-UTR fused to firefly luciferase) in HEK293T cells
Assay: ATF4-Luc assay (in vitro model of VWMD): HEK293T cells carrying ATF4 luciferase reporter, tunicamycin-treated
Type: cell-based
Details: Homo sapiens, HEK-293T, 1 μg/mL tunicamycin, 7 hours, One Glo luminescence
Method in brief: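 Reporter cells were stably generated by retroviral transduction and puromycin selection, then seeded at 30,000 cells/well. Next day, cells received 1 μg/mL tunicamycin with 200 nM test compound for 7 h, and luciferase luminescence was read with a one-step reagent. Values reported as EC50.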

Question: With `O=C(COc1ccc(F)c(F)c1)NC12CC(NC(=O)[C@@H]3C[C@H](O)c4cc(Cl)ccc4O3)(C1)C2` [Compound 278, (2S,4S)-6-chloro-N-{3-[2-(3,4-difluorophenoxy)acetamido]bicyclo[1.1.1]pentan-1-yl}-4-hydroxy-3,4-dihydro-2H-1-benzopyran-2-carboxamide] as the compound, how does the EC50 read?
Answer: 10 to 50 nM

Question: How did the EC50 turn out when `Cc1cnc(C(=O)NC23CC(NC(=O)[C@H]4C[C@@H](O)c5cc(Cl)ccc5O4)(C2)C3)cn1` [Compound 382, N-(3-{[(2R,4R)-6-chloro-4-hydroxy-3,4-dihydro-2H-1-benzopyran-2-carbonyl]amino}bicyclo[1.1.1]pentan-1-yl)-5-methylpyrazine-2-carboxamide] was run?
Answer: 50 to 250 nM

Question: For `COc1ccc2oc(C(=O)NC34CC(NC(=O)COc5ccc(Cl)c(F)c5)(C3)C4)cc(=O)c2n1` [Compound 322, N-{3-[2-(4-chloro-3-fluorophenoxy)acetamido]bicyclo[1.1.1]pentan-1-yl}-6-methoxy-4-oxo-4H-pyrano[3,2-b]pyridine-2-carboxamide], which EC50 is on record?
Answer: 50 to 250 nM

Question: `CC(=O)NC1CC(C(=O)NC23CC(NC(=O)COc4ccc(Cl)c(F)c4)(C2)C3)Oc2ccc(Cl)cc21` (stereo not shown) [Compound 220, 4-acetamido-6-chloro-N-{3-[2-(4-chloro-3-fluorophenoxy)acetamido]bicyclo[1.1.1]pentan-1-yl}-3,4-dihydro-2H-1-benzopyran-2-carboxamide] was tested. Which EC50 did it give?
Answer: 10 to 50 nM

Question: How did the EC50 turn out when `O=C(COc1ccc(Cl)c(F)c1)NC12CC(NC(=O)[C@@H]3CC(=O)c4cc(Cl)ccc4O3)(C1)C2` [Compound 224, (2S)-6-chloro-N-{3-[2-(4-chloro-3-fluorophenoxy)acetamido]bicyclo[1.1.1]pentan-1-yl}-4-oxo-3,4-dihydro-2H-1-benzopyran-2-carboxamide] was run?
Answer: < 10 nM

Question: How did the EC50 turn out when `CS(=O)(=O)N[C@@H]1C[C@@H](C(=O)NC23CC(NC(=O)COc4ccc(Cl)c(F)c4)(C2)C3)Oc2ccc(Cl)cc21` [Compound 245, (2S,4R)-6-chloro-N-{3-[2-(4-chloro-3-fluorophenoxy)acetamido]bicyclo[1.1.1]pentan-1-yl}-4-[(methanesulfonyl)amino]-3,4-dihydro-2H-1-benzopyran-2-carboxamide] was run?
Answer: < 10 nM

Question: Which EC50 does the source give for `O=C(COc1ccc(Cl)c(F)c1)NC12CCC(NC(=O)[C@H]3CC(=O)c4cc(Cl)ccc4O3)(C1)C2` [Compound 255, (2R)-6-chloro-N-{4-[2-(4-chloro-3-fluorophenoxy)acetamido]bicyclo[2.1.1]hexan-1-yl}-4-oxo-3,4-dihydro-2H-1-benzopyran-2-carboxamide] here?
Answer: < 10 nM

Question: Which EC50 does the source give for `O=C(COc1ccc(Cl)c(F)c1)NC12CC(NC(=O)c3cc(=O)c4cc(Cl)c(F)cc4o3)(C1)C2` [Compound 231, 6-chloro-N-{3-[2-(4-chloro-3-fluorophenoxy)acetamido]bicyclo[1.1.1]pentan-1-yl}-7-fluoro-4-oxo-4H-1-benzopyran-2-carboxamide] here?
Answer: < 10 nM

Question: With `O=C(NC12CCC(NC(=O)C3CC(=O)c4cc(Cl)ccc4O3)(C1)C2)OCc1ccccc1` (stereo not shown) [Compound 312, benzyl {4-[(6-chloro-4-oxo-3,4-dihydro-2H-1-benzopyran-2-carbonyl)amino]bicyclo[2.1.1]hexan-1-yl}carbamate] as the compound, how does the EC50 read?
Answer: 500 to 2000 nM

Question: `O=C(COc1ccc(Cl)c(F)c1)N[C@@H]1C[C@@H]2O[C@H]1C[C@H]2NC(=O)[C@@H]1C[C@@H](O)c2cc(Cl)ccc2O1` (racemic) [Compound 369, (2S,4R)-6-chloro-N-{(1RS,2SR,4RS,5SR)-5-[2-(4-chloro-3-fluorophenoxy)acetamido]-7-oxabicyclo[2.2.1]heptan-2-yl}-4-hydroxy-3,4-dihydro-2H-1-benzopyran-2-carboxamide] was tested. Which EC50 did it give?
Answer: 10 to 50 nM

Question: For `O=C(COc1ccc(Cl)c(F)c1)NC12CC(NC(=O)[C@H]3C[C@@H](O)c4cc(F)c(F)cc4O3)(C1)C2` (racemic) [Compound 249, rac-(2R,4R)—N-{3-[2-(4-chloro-3-fluorophenoxy)acetamido]bicyclo[1.1.1]pentan-1-yl}-6,7-difluoro-4-hydroxy-3,4-dihydro-2H-1-benzopyran-2-carboxamide], which EC50 is on record?
Answer: < 10 nM

Question: With `O=C(NC12CCC(NC(=O)[C@H]3CC(=O)c4cc(Cl)ccc4O3)(CC1)CC2)c1ccc(OC(F)(F)F)cn1` [Compound 357, N-(4-{[(2R)-6-chloro-4-oxo-3,4-dihydro-2H-1-benzopyran-2-carbonyl]amino}bicyclo[2.2.2]octan-1-yl)-5-(trifluoromethoxy)pyridine-2-carboxamide] as the compound, how does the EC50 read?
Answer: 500 to 2000 nM

Question: For `O=C(COc1ccc(F)c(F)c1)NC12CC(NC(=O)[C@H]3C[C@@H](O)c4cc(F)c(F)cc4O3)(C1)C2` [Compound 272, (2R,4R)—N-{3-[2-(3,4-difluorophenoxy)acetamido]bicyclo[1.1.1]pentan-1-yl}-6,7-difluoro-4-hydroxy-3,4-dihydro-2H-1-benzopyran-2-carboxamide], which EC50 is on record?
Answer: < 10 nM

Question: `C[C@@]1(C(=O)NC23CC(NC(=O)COc4ccc(Cl)c(F)c4)(C2)C3)Cc2cc(Cl)ccc2O1` [Compound 257, (2S)-5-chloro-N-{3-[2-(4-chloro-3-fluorophenoxy)acetamido]bicyclo[1.1.1]pentan-1-yl}-2-methyl-2,3-dihydro-1-benzofuran-2-carboxamide] was tested. Which EC50 did it give?
Answer: > 2000 nM

Question: With `O=C(COc1ccc(Cl)c(F)c1)NC12CC(NC(=O)c3cc(=O)c4ccc(F)cc4o3)(C1)C2` [Compound 313, N-{3-[2-(4-chloro-3-fluorophenoxy)acetamido]bicyclo[1.1.1]pentan-1-yl}-7-fluoro-4-oxo-4H-1-benzopyran-2-carboxamide] as the compound, how does the EC50 read?
Answer: 10 to 50 nM

Question: Which EC50 does the source give for `O=C(COc1ccc(Cl)c(F)c1)NC12CC(NC(=O)c3cc(=O)c4ccc5c(c4o3)OCO5)(C1)C2` [Compound 291, N-{3-[2-(4-chloro-3-fluorophenoxy)acetamido]bicyclo[1.1.1]pentan-1-yl}-6-oxo-2H,6H-[1,3]dioxolo[4,5-h][1]benzopyran-8-carboxamide] here?
Answer: 50 to 250 nM

Question: Which EC50 does the source give for `Cc1csc(C(=O)NC23CCC(NC(=O)[C@H]4C[C@@H](O)c5cc(Cl)ccc5O4)(CC2)[C@@H](O)C3)n1` [Compound 344, N-[(3S)-4-{[(2R,4R)-6-chloro-4-hydroxy-3,4-dihydro-2H-1-benzopyran-2-carbonyl]amino}-3-hydroxybicyclo[2.2.2]octan-1-yl]-4-methyl-1,3-thiazole-2-carboxamide] here?
Answer: 50 to 250 nM

Question: How did the EC50 turn out when `O=C(COc1ccc(Cl)c(F)c1)NC12CC(NC(=O)c3cc(=O)c4ccc(OC(F)F)cc4o3)(C1)C2` [Compound 286, N-{3-[2-(4-chloro-3-fluorophenoxy)acetamido]bicyclo[1.1.1]pentan-1-yl}-7-(difluoromethoxy)-4-oxo-4H-1-benzopyran-2-carboxamide] was run?
Answer: 50 to 250 nM

Question: For `NC1CC(C(=O)NC23CC(NC(=O)COc4ccc(Cl)c(F)c4)(C2)C3)Oc2ccc(Cl)cc21` (stereo not shown) [Compound 305, 4-amino-6-chloro-N-{3-[2-(4-chloro-3-fluorophenoxy)acetamido]bicyclo[1.1.1]pentan-1-yl}-3,4-dihydro-2H-1-benzopyran-2-carboxamide], which EC50 is on record?
Answer: < 10 nM

Question: Which EC50 does the source give for `Cc1ncc(C(=O)NC23CC(NC(=O)[C@H]4C[C@@H](O)c5cc(Cl)ccc5O4)(C2)C3)s1` [Compound 385, N-(3-{[(2R,4R)-6-chloro-4-hydroxy-3,4-dihydro-2H-1-benzopyran-2-carbonyl]amino}bicyclo[1.1.1]pentan-1-yl)-2-methyl-1,3-thiazole-5-carboxamide] here?
Answer: 50 to 250 nM

Question: With `O=C(COc1ccc(Cl)c(F)c1)NC12CCC(NC(=O)[C@H]3C[C@H](O)c4cc(Cl)ccc4O3)(C1)C2` [Compound 260, (2R,4S)-6-chloro-N-{4-[2-(4-chloro-3-fluorophenoxy)acetamido]bicyclo[2.1.1]hexan-1-yl}-4-hydroxy-3,4-dihydro-2H-1-benzopyran-2-carboxamide] as the compound, how does the EC50 read?
Answer: < 10 nM

Question: With `O=C(NC12CCC(NC(=O)[C@H]3C[C@@H](O)c4cc(Cl)ccc4O3)(CC1)C[C@@H]2O)c1cnc(C(F)F)cn1` [Compound 353, N-[(2S)-4-{[(2R,4R)-6-chloro-4-hydroxy-3,4-dihydro-2H-1-benzopyran-2-carbonyl]amino}-2-hydroxybicyclo[2.2.2]octan-1-yl]-5-(difluoromethyl)pyrazine-2-carboxamide] as the compound, how does the EC50 read?
Answer: 50 to 250 nM

Question: Which EC50 does the source give for `CS(=O)(=O)NC1CC(C(=O)NC23CC(NC(=O)COc4ccc(Cl)c(F)c4)(C2)C3)Oc2ccc(Cl)cc21` (stereo not shown) [Compound 219, 6-chloro-N-{3-[2-(4-chloro-3-fluorophenoxy)acetamido]bicyclo[1.1.1]pentan-1-yl}-4-[(methanesulfonyl)amino]-3,4-dihydro-2H-1-benzopyran-2-carboxamide] here?
Answer: < 10 nM

Question: Which EC50 does the source give for `O=C(COc1ccc(Cl)c(F)c1)NC12CCC(NC(=O)C3CC(=O)c4cc(Cl)ccc4O3)(CC1)CC2` (stereo not shown) [Compound 326, 6-chloro-N-{4-[2-(4-chloro-3-fluorophenoxy)acetamido]bicyclo[2.2.2]octan-1-yl}-4-oxo-3,4-dihydro-2H-1-benzopyran-2-carboxamide] here?
Answer: 10 to 50 nM

Question: How did the EC50 turn out when `O=C(COc1ccc(Cl)c(F)c1)NC12CC(NC(=O)[C@@H]3C[C@H](NCCO)c4cc(Cl)ccc4O3)(C1)C2` [Compound 309, (2S,4S)-6-chloro-N-{3-[2-(4-chloro-3-fluorophenoxy)acetamido]bicyclo[1.1.1]pentan-1-yl}-4-[(2-hydroxyethyl)amino]-3,4-dihydro-2H-1-benzopyran-2-carboxamide] was run?
Answer: < 10 nM

Question: Which EC50 does the source give for `O=C(NC12CCC(NC(=O)[C@H]3C[C@@H](O)c4cc(Cl)ccc4O3)(CC1)CC2)c1cnc(C(F)F)cn1` (racemic) [Compound 302, N-(4-{[rac-(2R,4R)-6-chloro-4-hydroxy-3,4-dihydro-2H-1-benzopyran-2-carbonyl]amino}bicyclo[2.2.2]octan-1-yl)-5-(difluoromethyl)pyrazine-2-carboxamide] here?
Answer: 50 to 250 nM

Question: Which EC50 does the source give for `O=C(NC12CC(NC(=O)[C@H]3C[C@@H](O)c4cc(Cl)ccc4O3)(C1)C2)c1cnc(C2CC2)o1` [Compound 383, N-(3-{[(2R,4R)-6-chloro-4-hydroxy-3,4-dihydro-2H-1-benzopyran-2-carbonyl]amino}bicyclo[1.1.1]pentan-1-yl)-2-cyclopropyl-1,3-oxazole-5-carboxamide] here?
Answer: 50 to 250 nM

Question: Which EC50 does the source give for `C[C@]1(O)C[C@H](C(=O)NC23CC(NC(=O)COc4ccc(Cl)c(F)c4)(C2)C3)Oc2ccc(Cl)cc21` (single isomer, unassigned) [Compound 281] here?
Answer: < 10 nM
